Results: patent US20100075316A1, “METHOD FOR I[…] VITAMIN D METABOLISM” (priority 2006, published 2010)

Experiments:
LNCaP = settings: androgen dependent human prostate cancer cell line; cited from earlier work
PC3 = settings: PC3, androgen independent human prostate cancer cells; cited from earlier work
advanced prostate cancer = settings: randomized trial, men with advanced prostate cancer; cited from earlier work
DU145 = settings: DU145, androgen independent human prostate cancer cells; cited from earlier work
CYP24 mRNA = experiment: Semi-quantitative RT-PCR of CYP24 exon 11-12 transcripts before and after calcitriol treatment; type: cell-based, human; settings: after calcitriol treatment
Excerpt: FIGS. 3A-3D provide graphical representations of CYP24 mRNA splicing patterns and cDNA amplification profiles. FIG. 3A provides a graphical map of the CYP24 gene from exon 9 through exon 11, an example of primer locations for obtaining cDNA using RT-PCR, and resulting products in the case of correct (280 bp) and aberrant (880 bp) splicing. FIG. 3B provides a graphical map of the CYP24 gene from exon 11 through exon 12 and RT-PCR cDNA product sizes for correctly spliced CYP24 mRNA from a CYP24 gene lacking a predictive SNP (150 bp), as well as the inclusion of intron 12 sequences in aberrantly spliced CYP24 mRNA when the predictive SNP is present (302 by transcript). FIG. 3C is a photographic representation of cDNA amplification products of unspliced or spliced CYP24 mRNA across exons 9-11 of the CYP24 mRNA. FIG. 3D is a photographic representation of cDNA amplification products across exons 11-12 of correctly spliced (150 bp) or aberrantly spliced (302 bp) CYP24 mRNA from various cancer cell lines.
Calcitriol treatment (T) modulated the relative expression of the two transcripts differently in the three prostate cancer cell lines. CYP24 enzyme activity is associated with the expression of the lower molecular weight transcript in the three prostate cancer cell lines as shown in Table 3 (D3=calcitriol), which describes the relationship between CYP24 protein activity phenotypes and exon 11-12 transcript size before (“C” in FIG. 3) and after (“T” in FIG. 3) calcitriol treatment in prostate cancer cell lines.

CYP24 = CYP24 enzyme activity in untreated and calcitriol-treated human cancer cell lines; type: cell-based; settings: for CYP24A1 enzyme activity profiles: baseline and calcitriol-induced
Excerpt: FIG. 2 is a graphical depiction of CYP24 enzymatic activity measured in untreated and calcitriol treated human cancer cell lines.
This Example provides an analysis of CYP24 enzyme activity in untreated and calcitriol-treated human (prostate, breast, lung and colon) cancer cell lines to characterize their capacity to catabolize calcitriol.

[1] = Serum calcitriol clearance in cancer patients by CYP24 genotype; type: in vivo, human; settings: TT/TT genotype (positions 15752 and 15774 of SEQ ID NO:1) vs TC/TC; 30 patients, oral high doses of calcitriol; p-value=0.0377
Description: Elimination half life was calculated using the equation: T1/2=0.693/β, where β is the slope of the regression line of the terminal log serum calcitriol concentration versus time.
This Example provides an analysis of clinical ramifications of certain CYP24 polymorphisms. To obtain the data presented in this Example, we analyzed CYP24 polymorphisms in the intron between exon 9 and 10 in DNA samples obtained from 30 cancer patients treated with high doses of orally administered calcitriol. […] (Smith DC, et al., Clin Cancer Res. 1999; 5: 1339-1345).

C=C1/C(=C\C=C2/CCC[C@]3(C)[C@@H]([C@H](C)CCCC(C)(C)O)CC[C@@H]23)C[C@@H](O)C[C@@H]1O [calcitriol]
sensitivity to calcitriol growth inhibition (LNCaP): sensitive to calcitriol growth inhibition | sensitivity to calcitriol growth inhibition (PC3): relatively resistant to calcitriol growth inhibition | potentiation of antitumor activity of docetaxel (advanced prostate cancer): potentiate the antitumor activity of docetaxel | sensitivity to calcitriol growth inhibition (DU145): relatively resistant to calcitriol growth inhibition | Exon 11-12 size (bp), D3 treated (CYP24 mRNA; DU145 prostate cancer cells): 135 bp | Exon 11-12 size (bp), D3 treated (CYP24 mRNA; LNCaP prostate cancer cells): 307 bp | Exon 11-12 size (bp), D3 treated (CYP24 mRNA; PC3 prostate cancer cells): 135 bp | baseline and calcitriol-induced CYP24 enzyme profile (CYP24; A549 lung cancer cells): high baseline and calcitriol induced CYP24 activity | CYP24A1 enzyme activity profiles (CYP24; DU145 prostate cancer cells): high baseline and calcitriol induced CYP24 activity | CYP24A1 enzyme activity profiles (CYP24; DU145 prostate cancer cells, listed as D3): High baseline & D3 inducible | baseline and calcitriol-induced CYP24 enzyme profile (CYP24; H520 lung cancer cells): negligible baseline and calcitriol-induced CYP24 activity | baseline and calcitriol-induced CYP24 enzyme profile (CYP24; HCT116 colon cancer cells): high baseline and calcitriol induced CYP24 activity | baseline and calcitriol-induced CYP24 enzyme profile (CYP24; HT29 colon cancer cells): barely detectable baseline CYP24 activity that is calcitriol-induced | CYP24A1 enzyme activity profiles (CYP24; LNCaP prostate cancer cells): negligible baseline and calcitriol-induced CYP24 activity | CYP24A1 enzyme activity profiles (CYP24; LNCaP prostate cancer cells, listed as D3): Negligible: baseline & D3 inducible | baseline and calcitriol-induced CYP24 enzyme profile (CYP24; MCF7 breast cancer cells): barely detectable baseline CYP24 activity that is calcitriol-induced | baseline and calcitriol-induced CYP24 enzyme profile (CYP24; MDA231 breast cancer cells): high baseline and calcitriol induced CYP24 activity | CYP24A1 enzyme activity profiles (CYP24; PC3 prostate cancer cells): barely detectable baseline CYP24 activity that is calcitriol-induced | CYP24A1 enzyme activity profiles (CYP24; PC3 prostate cancer cells, listed as D3): Negligible baseline & high D3 inducible | serum calcitriol elimination half life (T1/2) [1]: significantly lower T1/2 than the TC/TC genotype
